How the values were obtained:
[1] = system: diabetic RIP-DTA mice; assay: RIP-DTA mouse model of T1D; format: in vivo; details: 50 mg kg^−1 twice daily
From the text: All animal care and experimental procedures were approved by the Institutional Animal Care and Use Committee (IACUC) of Genomics Institute of the Novartis Research Foundation and strictly followed the NIH guidelines for humane treatment of animals. The double transgenic RIP-DTA male mice (Tg(Ins2-rtTA)2Efr Tg(teto-DTA)1Gfi/J; Jackson Laboratory, Stock # 008755) were bred in-house and were maintained in a 12-h light/12-dark cycle environment with controlled temperature, humidity and ventilation. Animals were housed 3–5 mice per cage and had free access to water and standard laboratory chow. To induce pancreatic β-cell ablation and hyperglycaemia, doxycycline (200 μg ml^−1, Sigma-Aldrich) was provided in the drinking water for 5 days. Blood glucose levels were measured from tail-vein blood with a glucometer (AlphaTrak2 Monitoring System; Abbott). Experimental groups of 14 male mice each were randomized based on similar body weights (28.8±2.4 g), age (82±2 days), and blood glucose levels (428±96 mg dl^−1). Group sizes of eight animals each are sufficient to reliably detect changes in glycaemic control and β-cell mass based on historical data with reference compounds; an additional six mice were added to each group to assess total pancreatic insulin levels. […] A sub-set of animals were not given doxycycline treatment and were used as a non-diabetic vehicle–control group. All compounds were administered daily via oral gavage (4 ml kg^−1). Body weight and blood glucose were monitored every third day. An oral glucose tolerance test was performed after an overnight fast on day 12. For the insulin tolerance test, mice were fasted for 4 h before the administration of insulin (Novolin, Novo Nordisk, 0.7 U kg^−1 body weight, i.p.). Pancreatic insulin content was determined by MSD (meso-scale discovery). […] To determine β-cell proliferation and β-cell mass by morphological analyses, pancreata from the rest of animals (n=8) were rapidly dissected, fixed in formalin, sectioned and immunostained for insulin, Ki67 and BrdU on day 16. Male NSG mice, aged 8 weeks, were obtained from the Jackson Laboratory (Strain NOD.Cg-Prkdc^scid Il2rg^tm1Wjl/SzJ; Stock number 005557) and housed according to IACUC guidelines. Baseline body weight and tail-vein blood glucose measurements were recorded before diabetic induction. To obtain a diabetic state, animals were given an intraperitoneal dose of STZ (135 mg kg^−1) and blood glucose was monitored before transplant. Mice were grouped according to body weight and blood glucose level on the day of transplants (72 h after STZ treatment).
Pancreas specimens were harvested, weighed, fixed in 10% neutral buffered formalin and processed using standard paraffin processing techniques. Five micrometre serial-step sections were mounted onto Superfrost Plus slides and air-dried overnight. Samples were coded before histologic analyses resulting in blinded processing and staining. Routine hematoxylin and eosin (H&E) stains were performed on all specimens. Immunostaining was performed using the Ventana Discovery XT system. All epitope retrieval was done on the instrument using CC1 reagent. Chromogenic insulin was detected using guinea pig anti-insulin (Dako Corp A0564) at 1:3,200 and the Blue Map kit, after serum blocking and endogenous biotin blocking was performed, slides were then counterstained with Nuclear Fast Red. Fluorescent insulin and Ki67 double stains used a cocktail of the Dako anti-insulin at 1:1,600 and rabbit monoclonal Ki67 (Thermo RM9106) at 1:100, and were detected using a cocktail of Alexa Fluor 488 and 594-labelled secondary antibodies. Auto-fluorescence was quenched in red blood cells and reduced in connective tissue by treatment with 10 mM copper sulfate. Slides were counterstained with DAPI. 21 slides were collected per block. All slides were imaged on the Hamamatsu Nanozoomer and evaluated for β-cell mass and proliferation. […]

[2] = biological target: T1, IKKb (Homo sapiens, UniProt O14920); assay: Kinase profiling; format: biochemical; details: Conc 1000 nM; read-out: Percent inhibition, IKKb
T1 construct: purchased Ambit KINOMEscan
T1 sequence (O14920 whole entry): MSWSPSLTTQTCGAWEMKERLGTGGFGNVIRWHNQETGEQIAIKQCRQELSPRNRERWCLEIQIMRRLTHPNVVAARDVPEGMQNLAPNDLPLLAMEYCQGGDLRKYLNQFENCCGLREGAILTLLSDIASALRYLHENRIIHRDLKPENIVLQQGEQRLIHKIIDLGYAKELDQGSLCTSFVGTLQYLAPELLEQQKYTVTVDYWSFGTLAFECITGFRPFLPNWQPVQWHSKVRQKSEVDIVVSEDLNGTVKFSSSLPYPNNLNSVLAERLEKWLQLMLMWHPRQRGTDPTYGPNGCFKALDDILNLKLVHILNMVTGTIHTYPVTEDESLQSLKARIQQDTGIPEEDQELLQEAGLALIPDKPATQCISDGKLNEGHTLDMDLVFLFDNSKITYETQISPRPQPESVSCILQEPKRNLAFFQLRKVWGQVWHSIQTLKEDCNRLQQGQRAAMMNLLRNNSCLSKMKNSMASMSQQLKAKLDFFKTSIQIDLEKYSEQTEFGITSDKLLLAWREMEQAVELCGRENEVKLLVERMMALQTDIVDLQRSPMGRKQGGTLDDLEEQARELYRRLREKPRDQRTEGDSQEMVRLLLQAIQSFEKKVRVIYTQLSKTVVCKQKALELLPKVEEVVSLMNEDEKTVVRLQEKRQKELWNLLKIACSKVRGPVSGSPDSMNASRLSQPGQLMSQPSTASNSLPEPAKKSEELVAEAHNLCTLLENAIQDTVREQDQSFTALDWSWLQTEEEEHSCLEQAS
From the text: (§1) ; Fig. 5a; Supplementary Table 1). We focused on Dyrk1a because other kinases inhibited by aminopyrazine compounds were not highly expressed in β-cells and because Dyrk1a was known to inhibit the NFAT pathway that was previously implicated in β-cell proliferation. We used molecular modelling to dock the aminopyrazine compounds into the published structure of Dyrk1a (protein databank accession code 2vx3.pdb; Fig. 5b).

[3] = biological target: T2, SGK1 (Homo sapiens, UniProt O00141); assay: Kinase profiling; format: biochemical; details: Conc 1000 nM; read-out: Percent inhibition, SGK1
T2 construct: purchased Ambit (KINOMEscan)
T2 sequence (O00141 whole entry): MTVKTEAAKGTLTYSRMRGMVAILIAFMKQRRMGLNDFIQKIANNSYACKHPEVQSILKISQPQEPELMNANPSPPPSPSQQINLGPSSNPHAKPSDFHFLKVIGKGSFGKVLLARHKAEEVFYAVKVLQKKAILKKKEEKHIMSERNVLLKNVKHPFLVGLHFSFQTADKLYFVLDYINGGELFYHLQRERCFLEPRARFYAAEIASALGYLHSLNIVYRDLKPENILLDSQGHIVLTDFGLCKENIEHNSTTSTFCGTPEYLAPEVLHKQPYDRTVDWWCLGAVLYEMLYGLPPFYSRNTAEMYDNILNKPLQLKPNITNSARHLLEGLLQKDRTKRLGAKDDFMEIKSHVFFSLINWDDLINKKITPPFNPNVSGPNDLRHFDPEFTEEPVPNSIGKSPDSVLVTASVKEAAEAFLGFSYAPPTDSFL
From the text: as §1

[4] = biological target: T3, c-Kit (Homo sapiens, UniProt P10721); assay: Kinase profiling; format: biochemical; details: Conc 1000 nM; read-out: Percent inhibition, c-Kit
T3 construct: purchased Ambit KINOMEscan
T3 sequence (P10721 26-976): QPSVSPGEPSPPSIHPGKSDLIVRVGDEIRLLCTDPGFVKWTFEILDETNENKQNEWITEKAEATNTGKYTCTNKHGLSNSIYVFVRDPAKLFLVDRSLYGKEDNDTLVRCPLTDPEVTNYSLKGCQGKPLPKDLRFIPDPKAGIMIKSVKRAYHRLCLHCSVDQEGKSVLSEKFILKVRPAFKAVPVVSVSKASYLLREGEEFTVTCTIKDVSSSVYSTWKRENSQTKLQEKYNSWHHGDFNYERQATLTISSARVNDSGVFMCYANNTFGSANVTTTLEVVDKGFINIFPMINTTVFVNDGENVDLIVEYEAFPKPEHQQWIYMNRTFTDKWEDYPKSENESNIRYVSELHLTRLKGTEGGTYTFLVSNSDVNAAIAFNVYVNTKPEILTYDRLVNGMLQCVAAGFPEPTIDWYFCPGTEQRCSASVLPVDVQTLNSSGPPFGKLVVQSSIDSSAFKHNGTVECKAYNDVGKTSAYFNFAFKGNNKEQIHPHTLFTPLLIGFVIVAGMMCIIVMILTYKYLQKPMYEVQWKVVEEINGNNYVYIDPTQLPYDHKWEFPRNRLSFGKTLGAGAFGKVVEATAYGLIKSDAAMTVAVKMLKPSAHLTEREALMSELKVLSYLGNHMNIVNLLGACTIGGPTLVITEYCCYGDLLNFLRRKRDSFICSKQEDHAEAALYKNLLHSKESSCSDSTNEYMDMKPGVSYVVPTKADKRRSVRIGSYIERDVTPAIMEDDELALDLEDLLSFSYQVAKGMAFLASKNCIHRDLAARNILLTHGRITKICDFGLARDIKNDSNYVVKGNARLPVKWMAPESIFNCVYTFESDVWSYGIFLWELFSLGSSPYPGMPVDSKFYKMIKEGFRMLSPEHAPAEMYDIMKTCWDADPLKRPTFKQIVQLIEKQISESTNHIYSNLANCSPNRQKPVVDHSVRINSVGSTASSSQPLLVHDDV
From the text: as §1

[5] = biological target: T4, PKCalpha (Homo sapiens, UniProt P17252); assay: Kinase profiling; format: biochemical; details: read-out: Percent inhibition, PKCalpha; for inhibition at 1 µM: Conc 1000 nM
T4 construct: purchased Ambit (KINOMEscan)
From the text: as §1

[6] = biological target: T5, IGF1R (Homo sapiens, UniProt P08069); assay: Kinase profiling; format: biochemical; details: Conc 1000 nM; read-out: Percent inhibition, IGF1R
T5 construct: purchased Ambit KINOMEscan
T5 sequence (P08069 31-1367): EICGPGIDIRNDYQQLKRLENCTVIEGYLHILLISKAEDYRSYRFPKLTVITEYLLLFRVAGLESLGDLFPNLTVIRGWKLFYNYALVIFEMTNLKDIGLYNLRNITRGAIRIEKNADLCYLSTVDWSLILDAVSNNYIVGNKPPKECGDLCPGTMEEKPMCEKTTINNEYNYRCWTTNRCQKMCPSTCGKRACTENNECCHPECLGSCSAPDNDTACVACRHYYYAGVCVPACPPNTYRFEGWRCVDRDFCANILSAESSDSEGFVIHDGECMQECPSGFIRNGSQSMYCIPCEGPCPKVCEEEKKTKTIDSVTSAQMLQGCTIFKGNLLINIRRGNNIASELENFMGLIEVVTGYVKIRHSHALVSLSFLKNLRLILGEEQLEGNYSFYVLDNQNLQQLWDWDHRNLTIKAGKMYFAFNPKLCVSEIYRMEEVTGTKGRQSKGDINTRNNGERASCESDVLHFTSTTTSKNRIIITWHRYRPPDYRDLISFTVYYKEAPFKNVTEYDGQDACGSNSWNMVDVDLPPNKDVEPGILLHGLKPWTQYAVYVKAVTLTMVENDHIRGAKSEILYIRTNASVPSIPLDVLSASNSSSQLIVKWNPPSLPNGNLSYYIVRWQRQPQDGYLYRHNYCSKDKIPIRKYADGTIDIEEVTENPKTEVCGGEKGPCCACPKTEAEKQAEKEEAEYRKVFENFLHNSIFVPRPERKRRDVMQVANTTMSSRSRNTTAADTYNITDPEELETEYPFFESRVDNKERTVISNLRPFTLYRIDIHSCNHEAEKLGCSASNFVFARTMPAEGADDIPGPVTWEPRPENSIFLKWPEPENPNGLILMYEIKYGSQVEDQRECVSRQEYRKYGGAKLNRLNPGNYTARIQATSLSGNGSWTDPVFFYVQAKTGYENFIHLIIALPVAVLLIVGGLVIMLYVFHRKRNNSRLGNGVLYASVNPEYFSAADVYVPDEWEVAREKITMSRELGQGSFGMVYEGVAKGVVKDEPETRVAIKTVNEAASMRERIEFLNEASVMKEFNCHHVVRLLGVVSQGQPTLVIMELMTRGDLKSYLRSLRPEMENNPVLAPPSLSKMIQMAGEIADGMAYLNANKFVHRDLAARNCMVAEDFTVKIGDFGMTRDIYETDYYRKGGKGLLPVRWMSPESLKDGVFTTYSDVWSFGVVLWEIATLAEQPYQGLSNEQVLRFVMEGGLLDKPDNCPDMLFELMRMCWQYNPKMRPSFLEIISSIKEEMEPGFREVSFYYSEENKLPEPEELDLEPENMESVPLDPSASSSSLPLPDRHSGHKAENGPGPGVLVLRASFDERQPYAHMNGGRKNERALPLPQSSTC
From the text: as §1

[7] = system: human islets in STZ-treated NSG mice; assay: Human islets transplanted under kidney capsule of STZ-treated NSG mice, oral dosing; format: in vivo, mouse; details: 50 mg kg^−1, twice daily, 9 days
From the text: All animal care and experimental procedures were approved by the Institutional Animal Care and Use Committee (IACUC) of Genomics Institute of the Novartis Research Foundation and strictly followed the NIH guidelines for humane treatment of animals. The double transgenic RIP-DTA male mice (Tg(Ins2-rtTA)2Efr Tg(teto-DTA)1Gfi/J; Jackson Laboratory, Stock # 008755) were bred in-house and were maintained in a 12-h light/12-dark cycle environment with controlled temperature, humidity and ventilation. Animals were housed 3–5 mice per cage and had free access to water and standard laboratory chow. […] Blood glucose levels were measured from tail-vein blood with a glucometer (AlphaTrak2 Monitoring System; Abbott). […] Body weight and blood glucose were monitored every third day. […] Pancreatic insulin content was determined by MSD (meso-scale discovery). […] Baseline body weight and tail-vein blood glucose measurements were recorded before diabetic induction. To obtain a diabetic state, animals were given an intraperitoneal dose of STZ (135 mg kg^−1) and blood glucose was monitored before transplant. […]
Human islets (obtained commercially from Prodo Laboratories Inc.) were recovered for 48 h before transplantation. […] While mice were prepared, islets were counted according to IEQs and prepared into islet suspension of 800 IEQ/mouse in cold PBS. […]

[8] = system: human islets transplanted into STZ-treated NOD-SCID mice; assay: Transplantation of compound-treated human islets into STZ-treated NOD-SCID mice; format: in vivo, mouse; details: islets treated in vitro before transplantation
From the text: Figure 2 AP compounds expand human islets ex vivo with retention of function after transplantation. […] (a) Immunofluorescence for insulin, Ki67 and DAPI on DMSO or GNF4877-treated human intact islets (scale bar, 50 μm). (b) Quantification of Ki67+ as a percent of total insulin+ cells (n=3). […] Data are shown as mean±s.d. (six mice per group; transplanted with islets from a single human donor). […] Data shown as mean±s.d.; (n=6 mice/group, *P<0.05, Student's t-test).
We tested whether aminopyrazine treatment of islets compromised their ability to secrete insulin in vitro and, after transplantation, in vivo.

[9] = biological target: T6, GSK3beta (Homo sapiens, UniProt P49841); assay: Kinase profiling; format: biochemical; details: Conc 1000 nM; read-out: Percent inhibition, GSK3beta
T6 construct: purchased Ambit KINOMEscan
T6 sequence (P49841 whole entry): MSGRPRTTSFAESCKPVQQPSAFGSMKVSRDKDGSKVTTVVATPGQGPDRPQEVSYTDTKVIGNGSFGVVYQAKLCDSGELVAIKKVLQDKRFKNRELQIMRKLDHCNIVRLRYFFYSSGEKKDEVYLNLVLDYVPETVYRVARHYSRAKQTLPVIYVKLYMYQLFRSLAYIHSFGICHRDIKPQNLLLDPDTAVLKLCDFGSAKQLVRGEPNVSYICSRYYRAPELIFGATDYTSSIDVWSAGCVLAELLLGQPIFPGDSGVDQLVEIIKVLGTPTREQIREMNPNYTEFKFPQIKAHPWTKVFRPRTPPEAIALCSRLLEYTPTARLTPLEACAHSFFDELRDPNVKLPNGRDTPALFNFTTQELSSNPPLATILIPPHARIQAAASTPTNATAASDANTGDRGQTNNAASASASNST

| Structure (SMILES) | oral glucose tolerance vs vehicle ([1]; 14 days of dosing) | body weight, appearance or behaviour vs vehicle ([1]; oral) | insulin tolerance vs vehicle ([1]; oral) | non-fasting blood glucose levels ([1]; oral) | β-cell mass, increase vs vehicle-treated diabetic mice ([1]; oral, 14 days) | insulin content, increase vs vehicle-treated diabetic mice ([1]; oral, whole pancreas lysate, 15 days) | inhibition at 1 µM [2] | inhibition at 1 µM [3] | inhibition at 1 µM [4] | inhibition at 0.2 µM ([5]; Conc 200 nM) | inhibition at 1 µM [5] | inhibition at 1 µM [6] | glucose control (fed glucose levels) [7] | euglycemia after transplantation of treated islets [8] | inhibition at 1 µM [9] |
| --- | --- | --- | --- | --- | --- | --- | --- | --- | --- | --- | --- | --- | --- | --- | --- |
| CC(C)Oc1ccc(F)c(-c2cnc(N)c(C(=O)Nc3cnccc3N3CCC[C@@H](C(=O)O)C3)n2)c1 [GNF4877] | dramatically improved glucose tolerance | did not show any difference in body weight | without a significant difference in insulin tolerance | progressive reduction of non-fasting blood glucose levels | ~1.5 fold | twofold | -1% | 67% | 77% | 0% | 97% | 49% | trend towards improved glucose control | – | – |
| Nc1ncc(-c2ccccc2)nc1C(=O)Nc1cnccc1N1CCC(C(=O)O)CC1 [GNF7156] | – | – | – | – | – | – | 8% | 39% | 49% | – | 96% | 19% | – | maintained the ability to preserve euglycemia | 99% |

Reference: PMC4639830, “Inhibition of DYRK1A and GSK3B induces human β-cell proliferation” (Nature Communications, 2015)
